According to ChEMBL document CHEMBL1201862, “PubChem BioAssay data set” (2004):
Activity calls are given as the source filed them.

Columns and labels:
[1] = target: Heat shock protein HSP 90-alpha (Homo sapiens, UniProt P07900); type: functional, organism-based
[2] = system: BJ; assay: BJ-TERT-LT-ST fibroblast viability loss – cell-based, RAS-independent, luminescence, dose response (AID 1935); type: functional; settings: Homo sapiens;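 further: BJ fibroblasts immortalized with TERT plus LT and ST oncogenes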
[3] = A549 cell cytotoxicity, dose response, cytotoxicity control, plate reader, cherry-pick, antagonist series (AID 743412); type: functional, cell-based
[4] = DRD fibroblast viability loss – cell-based, non-viral oncogenic, luminescence, dose response (AID 1934); type: functional; settings: Homo sapiens
[5] = system: BJ; assay: BJ-TERT fibroblast viability loss – cell-based, RAS-independent, luminescence, dose response (AID 1933); type: functional; settings: Homo sapiens
[6] = viability loss in HEK293 cells – cell-based, plate reader, cherry-picked samples, cytotoxicity control, dose response (AID 743446); type: functional
[7] = Luminescence Cell-Based Dose Confirmation HTS to Identify Inhibitors of Platelet Dense Granule Release. [Related pubchem assays: 1663 (Primary HTS), 1678 (Summary of Project)]; type: functional
[8] = blockade of melanocortin 4 receptor signaling – cell-based, plate reader, cherry pick, counter-screen for LGR2 antagonist project, dose response (AID 743444); type: functional;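 further: transfected HEK 293 cells stimulated with alpha-MSH peptide; potency of inhibitors of the alpha-MSH evoked signal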
[9] = target: Luciferin 4-monooxygenase (Photinus pyralis, UniProt P08659); assay: inhibition of purified Photinus pyralis luciferase – biochemical, luminescence, dose response (AID 1891)
[10] = blockers of bursicon-stimulated LGR2 cAMP reporter – cell-based, HEK293, CRE-luciferase reporter, cherry pick, set 2, dose response (AID 743343); type: functional;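 further: transfected cells were stimulated with diluted bursicon conditioned medium after compound addition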
[11] = system: BJ; assay: cells; type: functional, cell-based; settings: Homo sapiens
[12] = toxicity toward HepG2 liver cells – cell-based, plate reader, cherry-pick, antagonist series, cytotoxicity control, dose response (AID 743416); type: functional
[13] = target: T1, Microphthalmia-associated transcription factor (Homo sapiens, UniProt O75030); assay: reducers of TRPM1 reporter luminescence, concentration series – cell-based, SK-MEL-5, cherry-picked, set 3, MITF inhibitor project, dose response (AID 493073); type: functional;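 further: SK-MEL-5 melanoma cells with luciferase driven by the MITF target TRPM1 promoter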
T1 sequence (O75030 whole entry): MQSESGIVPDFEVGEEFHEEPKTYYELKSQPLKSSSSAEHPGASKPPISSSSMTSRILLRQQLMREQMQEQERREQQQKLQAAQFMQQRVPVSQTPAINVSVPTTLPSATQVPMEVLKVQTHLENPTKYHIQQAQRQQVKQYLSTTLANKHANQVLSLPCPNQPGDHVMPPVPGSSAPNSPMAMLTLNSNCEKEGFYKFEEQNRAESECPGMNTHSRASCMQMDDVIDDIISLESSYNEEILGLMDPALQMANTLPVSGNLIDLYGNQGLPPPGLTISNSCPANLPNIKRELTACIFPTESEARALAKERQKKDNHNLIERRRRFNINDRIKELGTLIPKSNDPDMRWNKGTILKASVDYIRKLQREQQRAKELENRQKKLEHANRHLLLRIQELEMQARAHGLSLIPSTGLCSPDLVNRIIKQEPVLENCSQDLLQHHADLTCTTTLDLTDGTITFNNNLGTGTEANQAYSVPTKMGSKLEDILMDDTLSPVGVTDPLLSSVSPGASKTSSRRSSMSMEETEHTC

[14] = luciferase inhibitors in kinase-free ADP detection – biochemical, luminescence, cherry-pick, set 02, artefact control for Dyrk1A inhibitor project, dose response (AID 588348)
[15] = target: Dual specificity tyrosine-phosphorylation-regulated kinase 1A (Rattus norvegicus, UniProt Q63470); type: biochemical, Homo sapiens
[16] = ADP-Glo luciferase signal interference – biochemical, luminescence, cherry-picked samples, set 2, artefact control for CDK5 inhibitor project, dose response (AID 504546); type: functional, cell-based
[17] = target: Phospholipase D2 (Homo sapiens, UniProt O14939); assay: cellular phospholipase D2 inhibition IC50 – cell-based, dose response (AID 602147); type: functional;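 further: cellular assay in HEK293 cells overexpressing GFP-tagged PLD2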
[18] = target: Phospholipase D1 (Homo sapiens, UniProt Q13393); assay: cellular phospholipase D1 inhibition IC50 – cell-based, dose response (AID 602151); type: functional;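 further: cellular PLD1 assay in Calu-1 cells stimulated with PMA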
Phospholipase D1, sequence (Q13393 whole entry): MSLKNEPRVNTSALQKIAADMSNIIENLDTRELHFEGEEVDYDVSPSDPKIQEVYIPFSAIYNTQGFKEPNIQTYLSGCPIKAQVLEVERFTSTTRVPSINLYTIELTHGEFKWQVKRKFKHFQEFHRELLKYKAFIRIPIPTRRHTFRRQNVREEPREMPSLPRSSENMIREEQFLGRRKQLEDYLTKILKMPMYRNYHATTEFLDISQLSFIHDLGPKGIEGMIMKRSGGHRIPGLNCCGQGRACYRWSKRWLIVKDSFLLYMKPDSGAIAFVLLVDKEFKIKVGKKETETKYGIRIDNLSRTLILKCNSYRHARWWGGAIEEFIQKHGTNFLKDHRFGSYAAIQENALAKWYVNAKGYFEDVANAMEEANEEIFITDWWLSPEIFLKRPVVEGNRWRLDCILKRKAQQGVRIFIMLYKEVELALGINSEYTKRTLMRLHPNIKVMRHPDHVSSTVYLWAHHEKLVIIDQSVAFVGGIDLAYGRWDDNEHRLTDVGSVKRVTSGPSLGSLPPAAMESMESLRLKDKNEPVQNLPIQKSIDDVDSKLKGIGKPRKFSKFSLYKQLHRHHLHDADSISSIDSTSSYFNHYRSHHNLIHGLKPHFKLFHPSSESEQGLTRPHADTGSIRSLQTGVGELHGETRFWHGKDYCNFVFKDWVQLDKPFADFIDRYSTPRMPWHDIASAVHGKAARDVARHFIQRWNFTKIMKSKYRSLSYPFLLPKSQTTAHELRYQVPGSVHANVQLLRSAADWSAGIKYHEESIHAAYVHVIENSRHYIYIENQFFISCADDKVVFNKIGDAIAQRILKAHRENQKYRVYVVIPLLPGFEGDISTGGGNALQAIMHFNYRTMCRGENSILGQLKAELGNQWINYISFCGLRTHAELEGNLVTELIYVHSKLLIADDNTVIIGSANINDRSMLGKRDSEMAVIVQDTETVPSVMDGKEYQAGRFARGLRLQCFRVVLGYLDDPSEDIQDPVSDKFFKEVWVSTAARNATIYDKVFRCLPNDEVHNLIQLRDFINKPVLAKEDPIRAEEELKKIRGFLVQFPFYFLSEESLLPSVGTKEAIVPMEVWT

[19] = target: T2, High affinity choline transporter 1 (Homo sapiens, UniProt Q9GZV3); assay: human choline transporter potentiators, potency – cell-based, 10-point CRC, membrane potential dye, dose response (AID 602376); type: functional
T2 sequence (Q9GZV3 whole entry): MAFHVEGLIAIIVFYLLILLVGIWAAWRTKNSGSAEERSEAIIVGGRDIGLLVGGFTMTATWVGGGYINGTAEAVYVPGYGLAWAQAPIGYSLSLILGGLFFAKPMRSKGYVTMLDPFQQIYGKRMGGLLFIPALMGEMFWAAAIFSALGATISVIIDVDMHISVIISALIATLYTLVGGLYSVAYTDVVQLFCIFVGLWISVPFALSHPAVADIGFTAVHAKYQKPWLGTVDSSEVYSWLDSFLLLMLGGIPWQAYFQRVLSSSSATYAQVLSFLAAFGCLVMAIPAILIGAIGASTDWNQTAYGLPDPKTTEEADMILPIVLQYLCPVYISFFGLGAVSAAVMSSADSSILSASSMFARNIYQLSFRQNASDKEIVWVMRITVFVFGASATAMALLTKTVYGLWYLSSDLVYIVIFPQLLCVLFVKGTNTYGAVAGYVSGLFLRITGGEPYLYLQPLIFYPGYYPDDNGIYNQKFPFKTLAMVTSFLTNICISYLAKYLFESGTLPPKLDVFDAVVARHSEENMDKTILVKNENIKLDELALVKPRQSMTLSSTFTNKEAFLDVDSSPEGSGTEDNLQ

[20] = loss of viability in HepG2 cells – cell-based, CellTiter-Glo, cherry-picked, cytotoxicity control for Shn3 inhibitor project, dose response (AID 624134); type: functional
[21] = target: Calcium/calmodulin-dependent protein kinase type 1 (Homo sapiens, UniProt Q14012); type: functional
Calcium/calmodulin-dependent protein kinase type 1, sequence (Q14012 whole entry): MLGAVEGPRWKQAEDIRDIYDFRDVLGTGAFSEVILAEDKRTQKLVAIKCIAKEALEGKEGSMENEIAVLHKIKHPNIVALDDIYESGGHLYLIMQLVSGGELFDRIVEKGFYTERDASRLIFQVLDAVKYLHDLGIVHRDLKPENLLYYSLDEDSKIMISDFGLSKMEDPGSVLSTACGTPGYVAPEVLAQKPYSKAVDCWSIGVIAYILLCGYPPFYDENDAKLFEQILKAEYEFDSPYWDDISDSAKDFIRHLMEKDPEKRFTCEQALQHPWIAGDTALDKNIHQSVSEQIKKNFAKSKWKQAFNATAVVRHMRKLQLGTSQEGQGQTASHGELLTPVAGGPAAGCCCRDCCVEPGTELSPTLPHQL

[22] = target: Inhibitor of nuclear factor kappa-B kinase subunit beta (Homo sapiens, UniProt O14920); type: functional
[23] = target: Ribosomal protein S6 kinase alpha-3 (Homo sapiens, UniProt P51812); type: functional;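 further: measured within a kinome-wide profiling panel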
[24] = target: Casein kinase II subunit alpha (Homo sapiens, UniProt P68400); type: functional
Casein kinase II subunit alpha, sequence (P68400 whole entry): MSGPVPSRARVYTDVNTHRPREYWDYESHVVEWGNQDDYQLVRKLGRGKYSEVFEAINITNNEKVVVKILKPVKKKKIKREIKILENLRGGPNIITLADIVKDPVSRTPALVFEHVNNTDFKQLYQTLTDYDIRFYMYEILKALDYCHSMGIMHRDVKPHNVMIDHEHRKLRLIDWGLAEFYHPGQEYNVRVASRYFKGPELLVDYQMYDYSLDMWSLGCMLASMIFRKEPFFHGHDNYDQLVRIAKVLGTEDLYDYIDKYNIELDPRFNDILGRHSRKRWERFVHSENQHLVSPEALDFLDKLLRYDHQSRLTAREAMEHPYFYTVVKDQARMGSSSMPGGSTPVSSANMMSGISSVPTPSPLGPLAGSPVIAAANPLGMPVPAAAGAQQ

[25] = target: 5'-AMP-activated protein kinase catalytic subunit alpha-1 (Homo sapiens, UniProt Q13131); type: functional
5'-AMP-activated protein kinase catalytic subunit alpha-1, sequence (Q13131 whole entry): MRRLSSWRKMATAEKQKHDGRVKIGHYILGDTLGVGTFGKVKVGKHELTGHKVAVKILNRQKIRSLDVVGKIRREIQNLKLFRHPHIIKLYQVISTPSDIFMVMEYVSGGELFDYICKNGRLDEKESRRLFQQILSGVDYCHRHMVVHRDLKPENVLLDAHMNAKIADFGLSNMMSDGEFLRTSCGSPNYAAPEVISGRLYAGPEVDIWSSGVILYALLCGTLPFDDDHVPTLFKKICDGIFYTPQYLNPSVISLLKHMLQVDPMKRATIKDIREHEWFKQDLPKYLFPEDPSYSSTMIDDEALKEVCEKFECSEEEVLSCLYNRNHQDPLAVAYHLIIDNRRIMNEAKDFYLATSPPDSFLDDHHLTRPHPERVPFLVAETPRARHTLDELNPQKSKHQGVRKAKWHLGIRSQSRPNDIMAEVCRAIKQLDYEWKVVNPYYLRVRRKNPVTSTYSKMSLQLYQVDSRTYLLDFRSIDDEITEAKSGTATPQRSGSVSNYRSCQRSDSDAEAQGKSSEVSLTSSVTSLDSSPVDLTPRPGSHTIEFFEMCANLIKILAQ

[26] = target: Serine/threonine-protein kinase MRCK alpha (Homo sapiens, UniProt Q5VT25); type: functional
Serine/threonine-protein kinase MRCK alpha, sequence (Q5VT25 whole entry): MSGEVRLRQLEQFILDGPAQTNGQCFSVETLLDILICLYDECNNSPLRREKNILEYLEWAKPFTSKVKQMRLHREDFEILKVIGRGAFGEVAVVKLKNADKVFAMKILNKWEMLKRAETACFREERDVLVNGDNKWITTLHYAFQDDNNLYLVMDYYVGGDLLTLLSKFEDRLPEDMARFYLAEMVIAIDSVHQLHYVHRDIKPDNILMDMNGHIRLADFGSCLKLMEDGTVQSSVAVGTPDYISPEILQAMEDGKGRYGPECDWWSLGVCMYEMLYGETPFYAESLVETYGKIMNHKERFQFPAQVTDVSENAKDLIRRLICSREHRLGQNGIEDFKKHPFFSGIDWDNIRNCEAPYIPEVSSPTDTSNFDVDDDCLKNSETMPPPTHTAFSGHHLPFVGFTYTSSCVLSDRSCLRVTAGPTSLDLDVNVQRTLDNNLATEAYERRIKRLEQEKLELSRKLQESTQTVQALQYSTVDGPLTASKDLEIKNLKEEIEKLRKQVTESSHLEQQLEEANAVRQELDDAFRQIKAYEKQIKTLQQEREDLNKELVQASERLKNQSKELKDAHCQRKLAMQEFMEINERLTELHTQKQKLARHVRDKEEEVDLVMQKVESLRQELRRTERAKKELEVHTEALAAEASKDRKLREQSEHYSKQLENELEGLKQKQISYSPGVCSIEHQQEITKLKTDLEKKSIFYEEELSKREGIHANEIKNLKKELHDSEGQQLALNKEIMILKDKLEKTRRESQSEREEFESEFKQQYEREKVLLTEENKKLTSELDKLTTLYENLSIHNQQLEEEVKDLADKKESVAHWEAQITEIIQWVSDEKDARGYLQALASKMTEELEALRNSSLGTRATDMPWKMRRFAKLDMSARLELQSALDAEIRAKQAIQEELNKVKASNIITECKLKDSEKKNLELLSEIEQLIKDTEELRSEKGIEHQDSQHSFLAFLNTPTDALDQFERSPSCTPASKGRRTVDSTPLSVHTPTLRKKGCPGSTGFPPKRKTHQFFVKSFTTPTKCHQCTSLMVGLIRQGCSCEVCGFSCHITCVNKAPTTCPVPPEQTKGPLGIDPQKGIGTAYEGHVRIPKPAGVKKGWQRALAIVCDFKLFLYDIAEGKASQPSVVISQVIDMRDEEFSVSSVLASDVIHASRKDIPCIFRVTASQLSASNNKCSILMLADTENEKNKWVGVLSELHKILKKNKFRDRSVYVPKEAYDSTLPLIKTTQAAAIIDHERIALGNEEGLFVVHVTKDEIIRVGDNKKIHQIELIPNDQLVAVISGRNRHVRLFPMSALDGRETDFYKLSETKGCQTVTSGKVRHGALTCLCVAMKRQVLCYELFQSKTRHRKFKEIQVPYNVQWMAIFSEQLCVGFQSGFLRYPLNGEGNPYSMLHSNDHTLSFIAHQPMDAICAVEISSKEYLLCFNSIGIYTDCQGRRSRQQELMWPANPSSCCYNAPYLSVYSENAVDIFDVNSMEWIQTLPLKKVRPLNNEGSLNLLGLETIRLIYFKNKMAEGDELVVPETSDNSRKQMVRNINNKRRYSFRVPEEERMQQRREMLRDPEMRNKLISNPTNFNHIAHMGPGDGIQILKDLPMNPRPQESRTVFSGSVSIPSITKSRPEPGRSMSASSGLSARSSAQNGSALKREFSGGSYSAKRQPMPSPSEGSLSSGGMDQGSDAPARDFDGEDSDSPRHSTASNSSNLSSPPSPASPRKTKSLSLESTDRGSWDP

[27] = target: cAMP-dependent protein kinase catalytic subunit alpha (Homo sapiens, UniProt P17612); type: functional
[28] = Vero cell cytotoxicity, cytotoxicity control for M. tuberculosis inhibitor project, purified and synthesized samples, set 3 (AID 504684); type: functional
[29] = cells; type: functional
[30] = microbe, parasite or virus in culture; type: functional; settings: Mycobacterium tuberculosis
[31] = Trypanosoma cruzi growth suppression in host cells – NIH3T3 host cells, beta-gal luminescence, confirmation (AID 2044); type: functional, cell-based;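 further: intracellular parasites grown in NIH/3T3 mouse fibroblasts as host cells; luminescent beta-galactosidase reporter signal from transgenic T. cruzi replicating inside host cells; inhibitors lower the luminescence signal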
[32] = A Cell Based Secondary Assay to Explore Cytotoxicity in HepG2 Cells of Compounds that Modulate Mycobacterium tuberculosis in Media Containing Glycerol versus Media without Glycerol (2).; type: functional
[33] = THP-1 cell cytotoxicity, dose response, cytotoxicity control for non-replicating M. tuberculosis project (AID 489025); type: functional
[34] = NIH3T3 cell viability loss – ATP luminescence, mouse fibroblasts, counter-screen, dose response (AID 2010); type: functional, cell-based;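 further: cells exposed to compound for about 90 hours before reading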
[35] = A Cell Based Secondary Assay to Explore Cytotoxicity in THP-1 Cells of Compounds that Modulate Mycobacterium tuberculosis in Media Containing Glycerol versus Media without Glycerol (2).; type: functional
[36] = target: T3, Orexin receptor type 2 (Homo sapiens, UniProt O43614); assay: Counterscreen assay for antagonists of the orexin 1 receptor (OX1R; HCRTR1): Homogeneous Time Resolved Fluorescence (HTRF)-based cell-based dose response assay for antagonists of the orexin 2 receptor (OX2R; HCRTR2), run by assay provider.; type: functional
T3 sequence (O43614 whole entry): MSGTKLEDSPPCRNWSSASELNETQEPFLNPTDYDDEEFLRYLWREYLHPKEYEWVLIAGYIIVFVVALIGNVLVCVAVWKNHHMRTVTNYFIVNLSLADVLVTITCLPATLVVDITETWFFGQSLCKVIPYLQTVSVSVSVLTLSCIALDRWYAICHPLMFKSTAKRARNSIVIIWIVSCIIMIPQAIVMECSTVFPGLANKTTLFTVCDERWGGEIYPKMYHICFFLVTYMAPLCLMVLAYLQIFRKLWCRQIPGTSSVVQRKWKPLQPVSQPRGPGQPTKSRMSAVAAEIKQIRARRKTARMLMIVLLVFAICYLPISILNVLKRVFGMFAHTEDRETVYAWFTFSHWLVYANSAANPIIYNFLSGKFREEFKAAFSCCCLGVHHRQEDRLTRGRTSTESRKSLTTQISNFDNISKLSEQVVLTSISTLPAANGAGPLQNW

[37] = (§1) Counterscreen for antagonists of the orexin 1 receptor (OX1R; HCRTR1): Fluorescence-based cell-based high throughput dose response assay to identify antagonists of the parental CHO cell line. [Related pubchem assays (depositor defined):AID434989, AID435008, AID463079, AID485270, AID492963, AID492964, AID492965, AID493232, AID504699, AID504701]; type: functional
[38] = target: T4, Orexin/Hypocretin receptor type 1 (Homo sapiens, UniProt O43613); assay: (§2) Fluorescence-based cell-based high throughput dose response assay for antagonists of the orexin 1 receptor (OX1R; HCRTR1). [Related pubchem assays (depositor defined):AID434989, AID435008, AID463079, AID485270, AID492963, AID492964, AID492965, AID493232, AID504717, AID504718]; type: functional
T4 sequence (O43613 whole entry): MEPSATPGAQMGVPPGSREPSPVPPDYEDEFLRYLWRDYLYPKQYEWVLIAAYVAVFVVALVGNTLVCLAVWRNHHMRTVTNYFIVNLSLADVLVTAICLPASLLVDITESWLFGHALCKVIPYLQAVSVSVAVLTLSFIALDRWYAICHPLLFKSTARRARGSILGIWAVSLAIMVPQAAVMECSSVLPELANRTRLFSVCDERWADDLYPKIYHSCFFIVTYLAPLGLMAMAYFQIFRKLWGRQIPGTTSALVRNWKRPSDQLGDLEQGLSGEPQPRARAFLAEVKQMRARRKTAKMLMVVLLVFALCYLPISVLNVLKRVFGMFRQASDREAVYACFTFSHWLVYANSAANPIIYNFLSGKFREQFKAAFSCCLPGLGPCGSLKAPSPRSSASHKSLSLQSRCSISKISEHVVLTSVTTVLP

[39] = target: T3, Orexin receptor type 2; assay: Counterscreen assay for antagonists of the orexin 1 receptor (OX1R; HCRTR1): Fluorescence-based cell-based dose response assay for antagonists of the orexin 2 receptor (OX2R; HCRTR2), run by assay provider.; type: functional
[40] = system: CHO-K1; assay: as §1, with “Homogeneous time resolved fluorescence (HTRF)-based” for “Fluorescence-based”, “cell-based” for “cell-based high throughput”, “CHO-K1” for “CHO”; type: functional; settings: Cricetulus griseus;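 further: potency for inhibition of ATP-stimulated IP1 production as antagonists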
[41] = target: T4, Orexin/Hypocretin receptor type 1; assay: as §2, with “Homogeneous Time Resolved Fluorescence (HTRF)-based” for “Fluorescence-based”; type: functional
[42] = system: HEK293; assay: SAR Analysis of small molecule inhibitors of both B-cell and T-cell specific antigen receptor-induced NF-kB activation in a HEK-293T cell line using a luminescence assay. [Related pubchem assays (depositor defined):AID435003, AID435022, AID465, AID489019, AID489029]; type: functional, cell-based; settings: Homo sapiens
[43] = system: HEK293; assay: HEK293T cell viability loss, resazurin readout – resazurin fluorescence, cytotoxicity control for NF-kB activator project, SAR follow-up (AID 493251); type: functional, cell-based; settings: Homo sapiens
[44] = system: Jurkat; assay: SAR Analysis of small molecule inhibitors of both B-cell and T-cell specific antigen receptor-induced NF-kB activation in a Jurkat cell line using a luminescence assay. [Related pubchem assays (depositor defined):AID435003, AID435022, AID465, AID489029]; type: functional, cell-based; settings: Homo sapiens

For `N/C(Cc1ccc(Cl)cc1)=N\OC(=O)c1cccc2ccccc12`, the AC50 [1] was 1.8 µM (active).

With `CCOc1ccc(-c2ccc(SC)nn2)cc1` the EC50 [2] was > 150 µM (not active), the AC50 [3] was 18.6 µM (active) and the EC50 [4] was 9.86 µM (active). The EC50 [5] was 11.5 µM (active), the AC50 [6] was 14 µM (active) and the EC50 [7] was 1.74 µM (active). The AC50 [8] was 2.36 µM (active), the EC50 [9] was 2.3 µM (active) and the AC50 [10] was 3.05 µM (active). The EC50 [11] was 9.15 µM (active), the AC50 [12] was 15 µM (active) and the AC50 [13] was 5.17 µM (active). For the same molecule, the AC50 [14] was 26.1 µM (active), the AC50 [15] was 20.8 µM (active) and the AC50 [16] was 76.7 µM (active).

For `O=C(NCCN1CCC(C(=O)NCC2CC2)CC1)c1ccc2ccccc2c1`, the IC50 [17] was 20 µM (active) and the IC50 [18] was 20 µM (active).

In the case of `C[C@@H]1CC=C[C@H]2[C@H]1C(=O)N(Cc1ccccc1)[C@H]2c1cccc([N+](=O)[O-])c1`, the EC50 [19] is reported as 22.7 µM (active) and the AC50 [20] is reported as 58.9 µM (active).

For `NCCn1cc(-c2cc(-c3cc4ccccc4s3)c3[nH]ncc3c2)c2nc(N)ncc21`, the Ki [21] was > 7.94 µM (inactive), the Ki [22] was 0.251 µM (active) and the Ki [23] was 3.16 µM (active). For the same molecule, the Ki [24] was > 6.31 µM (inactive), the Ki [25] was 0.398 µM (active) and the Ki [26] was 3.16 µM (active). The Ki [27] was 0.0501 µM (active).

For `O=C(NCC(c1cccs1)N1CCOCC1)c1cc([N+](=O)[O-])cc([N+](=O)[O-])c1` (centres undefined), the CC50 [28] was 44.4 µM (active), the IC50 [29] was 1.37 µM (active) and the CC50 [30] was > 40 µM (active). The EC50 [31] was 0.726 µM (active), the CC50 [32] was > 50 µM (active) and the CC50 [33] was > 40 µM (active). For the same molecule, the EC50 [34] was > 60 µM (not active) and the CC50 [35] was 69 µM (active).

In the case of `O=C(NC(Cc1c[nH]c2ccccc12)C(=O)N/N=C/c1ccc(Br)cc1)c1cccs1` (centres undefined), the IC50 [36] is reported as 11.1 µM (inactive), the IC50 [37] is reported as > 49.8 µM (inactive) and the IC50 [38] is reported as 7.4 µM (active). The IC50 [39] was 14.3 µM (inactive), the IC50 [40] was > 66.2 µM (inactive) and the IC50 [41] was 2.99 µM (active).

For `Cc1ccc(S(=O)(=O)Nc2cccc3ccc(C)nc23)cc1`, the IC50 [42] was > 79 µM (inactive), the IC50 [43] was > 80 µM (inactive) and the IC50 [44] was 1.79 µM (active).
